Assay [1] has as its system d(TG4T) (DNA, G4) TGGGGT. In words: ITC. The following applies: 60 mM KCl, 10 mM sodium cacodylate, 0.5 mM EDTA, pH 7.0, 20 °C.
For assay [2], the system named is d(UG4T) (DNA, G4, 2'-deoxyuridine at 1) UGGGGT. The assay is described as follows: ITC. The following applies: 60 mM KCl; 10 mM sodium cacodylate, 0.5 mM EDTA, pH 7.0, 20 °C.
Assay [3] concerns d(T2G4T2) (DNA, G4) TTGGGGTT
In words: ITC. Conditions: 60 mM KCl; 10 mM sodium cacodylate, 0.5 mM EDTA, pH 7.0, 20 °C.

The test system of assay [4] is d(T3G4T3) (DNA, G4) TTTGGGGTTT
In words: ITC. The following applies: 60 mM KCl; 10 mM sodium cacodylate, 0.5 mM EDTA, pH 7.0, 20 °C; one binding event, isotherm not fitted.

In assay [5] the test system is d(T4G4T4) (DNA, G4) TTTTGGGGTTTT
In words: ITC. The following applies: 90 mM KCl; 10 mM sodium cacodylate, 0.5 mM EDTA, pH 7.0, 20 °C; one binding event, isotherm not fitted.

For assay [6], the system named is CEB1 (DNA, G4) AGGGGGGAGGGAGGGTGG
In words: ITC. The following applies: 60 mM KCl; 10 mM sodium cacodylate, 0.5 mM EDTA, pH 7.0, 20 °C.

For assay [7], the system named is d(TG4T) (DNA, G4) TGGGGT. In words: fluorescent intercalator displacement. The following applies: 10 mM sodium cacodylate, 0.5 mM EDTA, pH 7.0, 21-23 °C, thiazole orange displaced, 1 μM neomycin, 1 μM quadruplex.

With `NC[C@@H]1O[C@H](O[C@H]2[C@@H](O)[C@H](O[C@@H]3[C@@H](O)[C@H](N)C[C@H](N)[C@H]3O[C@H]3O[C@H](CN)[C@@H](O)[C@H](O)[C@H]3N)O[C@@H]2CO)[C@H](N)[C@@H](O)[C@@H]1O`, the Ka1 in assay [1] (site 1 of 2) is on record as 2.10 ± 0.80 × 10^8 M^-1. Besides, the Ka in assay [2] is 1.23 ± 0.05 × 10^6 M^-1; in assay [3], 59000 M⁻¹. Further, the binding entry in assay [4] and in assay [5] was “yes” in each case. For the same compound, in assay [6], the association constant worked out at 723000 M⁻¹. The “% fluorescence change” value in assay [7] (30 mM NaCl) is ~ 25%; in assay [7] (60 mM KCl), ~ 15%.
Consider `NC[C@@H]1O[C@H](O[C@H]2[C@@H](O)[C@H](O[C@@H]3[C@@H](O)[C@H](N)C[C@H](N)[C@H]3O[C@H]3O[C@H](CO)[C@@H](O)[C@H](O)[C@H]3N)O[C@@H]2CO)[C@H](N)[C@@H](O)[C@@H]1O`, for which, in assay [1] (isotherm could not be fitted, 300 μM titrant), the binding entry was “weak”.

(Values after PMC10475565 (2023).)
